{"source": "patent US20030162834A1", "about": "“Natural physiologically active material effective on fish diseases and fish food containing the material” (priority 1998, published 2003)", "key": {"[1]": {"test_system": "Cryptocaryon irritans", "experiment": "Trial 10: immersion of infected tiger puffer in seawater containing octanoic acid", "format": "in vivo", "settings": "200 ppm for 2 minutes, 3 hours after return to seawater", "method": "300 g of tiger puffer infected with Cryptocaryon irritans was immersed in seawater containing 200 ppm of octanoic acid for 2 minutes, and then returned to seawater again. After 3 hours from return to seawater, the parasites Cryptocaryon irritans and their situations and numbers were observed."}, "[2]": {"test_system": "Heterobothrium okamotoi larvae", "experiment": "Immersion of Heterobothrium okamotoi larvae in seawater with dissolved octanoic acid", "format": "cell-based", "settings": "seawater in which octanoic acid was dissolved", "method": "Larvae of parasites Heterobothrium okamotoi were immersed in seawater in which octanoic acid was dissolved. […] Octanoic acid is an edible natural material contained in palm oil, butter and nuts, and has been used in a drug applied to dyspeptics, for example."}, "[3]": {"test_system": "Benedenia seriolae adults", "experiment": "Trial 2: in vitro immersion in octanoic acid seawater", "format": "cell-based", "settings": "800 PPM octanoic acid added to seawater, 20 degrees centigrade", "method": "(§1) 800 PPM of octanoic acid was added to seawater and dissolved therein maximally. In this seawater solution, Bivagina tai larvae sampled from the gill of red sea bream, Heteraxine heterocerca larvae sampled from the gill of young yellowtail, Benedenia seriolae adults sampled from the body surface of young yellowtail, Kudoa shiomitsui spores sampled from the heart of tiger puffer, and Pseudocaligus fugu adults sampled from the body surface of tiger puffer were immersed under condition of 20 degrees centigrade, followed by observation. As control, another group was managed using seawater alone. More than 30 individuals of parasites were transferred to each group."}, "[4]": {"test_system": "Kudoa shiomitsui spores", "experiment": "Trial 2: in vitro immersion in octanoic acid seawater", "format": "cell-based", "settings": "800 PPM octanoic acid added to seawater, 20 degrees centigrade", "method": "as §1"}, "[5]": {"test_system": "Heteraxine heterocerca larvae", "experiment": "Trial 2: in vitro immersion in octanoic acid seawater", "format": "cell-based", "settings": "800 PPM octanoic acid added to seawater, 20 degrees centigrade", "method": "as §1"}, "[6]": {"test_system": "Bivagina tai larvae", "experiment": "Trial 2: in vitro immersion in octanoic acid seawater", "format": "cell-based", "settings": "800 PPM octanoic acid added to seawater, 20 degrees centigrade", "method": "as §1"}, "[7]": {"test_system": "Pseudocaligus fugu adults", "experiment": "Trial 2: in vitro immersion in octanoic acid seawater", "format": "cell-based", "settings": "800 PPM octanoic acid added to seawater, 20 degrees centigrade", "method": "as §1"}, "[8]": {"test_system": "Heterobothrium okamotoi", "experiment": "Trial 6: vitamin C enhancement trial on tiger puffer", "format": "in vivo", "settings": "5 g octanoic acid per 1 kg pellets (with or without 200 mg vitamin C per kg), oral, 15 days after first challenge", "description": "Fish tested: Tiger puffer weighing approximately 50.0 g in average.\n(§2) Trial groups: Three groups, i.e., an octanoic-acid added group in which fish were fed diets added with octanoic acid, an octanoic-acid added/vitamin-C enhanced group in which fish were fed diets added with both octanoic acid and vitamin C, and a control group in which fish were fed diets not added with octanoic acid. The feeding rate was 2% of fish weight/day for each group.\n(§3) Trial diets: The diets added with octanoic acid were prepared by spraying 5 g of octanoic acid to 1 kg of commercially available pellets for tiger puffer. The diets added with both octanoic acid and vitamin C were prepared by spraying 200 mg of vitamin C, dissolved in water, to 1 kg of the above diets added with octanoic acid. The control group fish were fed the commercially available pellets for tiger puffer.\nChallenge trial: Each 5 pieces of fish from among a shoal of fish, in which no diseases such as parasitic infections were found, were put in a 100-liter water tank, and were fed the respective trial diets. After 7 days, approximately 750 individuals of oncomiracidia of Heterobothrium okamotoi were put into each water tank to infect the fish while water flow was stopped for 1 hour. The infection procedure was repeated every other day 5 times in total under the same condition. […]"}, "[9]": {"test_system": "Cryptocaryon irritans", "experiment": "Trial 7: vitamin C enhancement trial on red sea bream", "format": "in vivo", "settings": "oral", "description": "Fish tested: Red sea bream weighing approximately 15.8 g in average.\nas §2, with “3%” for “2%”\nas §3, with “2.5” for “5”, “red sea bream.” for “tiger puffer.”\nChallenge trial: Each 30 pieces of fish from among a shoal of fish, in which no diseases such as Cryptocaryon irritans infection were found, were put in a 100-liter water tank, and were fed the respective trial diets. After 5 days, approximately 2000 individuals of theronts of Cryptocaryon irritans were put into each water tank to infect the fish while water flow was stopped for 1 hour. Then, bleeding was continued for 60 days. During the trial period, the water temperature was 24+−1 degrees centigrade and the water was exchanged at 20 cycles/day.\nEvaluation was made by sampling 5 pieces of fish from each group after 18 and 31 days from the start of the challenge, comparing the number of the parasites attaching to the gill of each fish, and comparing mortality of the fish during the trial period between the respective groups."}, "[10]": {"test_system": "Heterobothrium okamotoi", "experiment": "Trial 3: oral octanoic acid, Heterobothrium okamotoi challenge trial on tiger puffer", "format": "in vivo", "settings": "2.5 g octanoic acid per 1 kg pellets", "method": "Fish tested: Tiger puffer weighing approximately 133.6 g in average.\nTrial groups: Two groups, i.e., an octanoic-acid added group in which fish were fed diets added with octanoic acid, and a control group in which fish were fed diets not added with octanoic acid. The feeding rate was 1% of fish weight/day for each group.\nTrial diets: The diets added with octanoic acid were prepared by spraying 2.5 g of octanoic acid to 1 kg of commercially available pellets for tiger puffer. The control group fish were fed the commercially available pellets for tiger puffer.\nChallenge trial: Each 12 pieces of fish (normal fish) from among a shoal of fish, in which no diseases such as Heterobothrium okamotoi infection were found, were put in a 100-liter water tank, and were fed the respective trial diets. After 7 days, 6 pieces of fish (infected fish), which had been infected in advance with approximately 100 individuals of Heterobothrium okamotoi, were added to each trial group. Then, bleeding was continued for 73 days while feeding the trial diets. In this trial, the parasites Heterobothrium okamotoi in the infected fish were in the stage of adult. After 30 days from adding the infected fish, 4 pieces of normal fish were sampled from each group, and the number of parasites attaching to the gill was counted. During the trial period, the water temperature was in the range of 16.5-20.9 degrees centigrade and the water was exchanged at 20 cycles/day.\nEvaluation was made by comparing mortality of the fish in respective groups during the trial period, and by counting the number of parasites attaching to the gill of the infected fish in each group for investigation of the remedy efficacy and the infection preventable efficacy."}}, "data": [{"compound": "CCCCCCCC(=O)O", "note": "[octanoic acid]", "values": [{"measurement": "number of parasites attaching to the body surface", "setting": "[1]; before treatment 193/2 cm^2", "result": "261 /2 cm^2"}, {"measurement": "number of parasites attaching to the gill", "setting": "[1]; before treatment 624", "result": 356, "unit": "per branchial arch"}, {"measurement": "body-surface parasites that showed movement and seemed still alive", "setting": "[1]; of 261", "result": 9}, {"measurement": "gill parasites that showed movement and seemed still alive", "setting": "[1]; of 356", "result": 193}, {"measurement": "effect on larvae", "setting": "[2]", "result": "died due to the occurrence of structural damages (such as vacuolation)"}, {"measurement": "contraction of parasites", "setting": "[3]", "result": "became contracted apparently"}, {"measurement": "time until contraction occurred", "setting": "[3]", "result": "approximately 10 minutes"}, {"measurement": "time until burst image of the spores was observed", "setting": "[4]", "result": "approximately 1 hour"}, {"measurement": "contraction of parasites", "setting": "[5]", "result": "became contracted apparently"}, {"measurement": "time until contraction occurred", "setting": "[5]", "result": "approximately 10 minutes"}, {"measurement": "contraction of parasites", "setting": "[6]", "result": "became contracted apparently"}, {"measurement": "time until contraction occurred", "setting": "[6]", "result": "approximately 10 minutes"}, {"measurement": "contraction of parasites", "setting": "[7]", "result": "no contraction"}, {"measurement": "time until reduction in swimming activity was found", "setting": "[7]", "result": "approximately 1 hour"}, {"measurement": "number of parasites attaching to the gill", "setting": "[8]", "result": "apparently fewer"}, {"measurement": "number of parasites attaching to the gill after 18 and 31 days", "setting": "[9]; 2.5 g octanoic acid per 1 kg pellets (with or without 200 mg vitamin C per kg)", "result": "apparently fewer"}, {"measurement": "fish mortality during the trial", "setting": "[9]; 2.5 g octanoic acid per 1 kg pellets (with or without 200 mg vitamin C per kg), 60 days", "result": "all dead"}, {"measurement": "time at which the fish began dying, versus control", "setting": "[9]; 2.5 g octanoic acid per 1 kg pellets", "result": "later"}, {"measurement": "number of parasites attaching to the normal fish after 30 days, versus control", "setting": "[10]", "result": "apparently reduced"}, {"measurement": "number of parasites (adults and larvae) attaching to infected fish survived at the end of the trial, versus control", "setting": "[10]; 73 days", "result": "apparently reduced"}, {"measurement": "numbers of parasites in normal fish survived at the end and fish died during the trial", "setting": "[10]; 73 days", "result": "apparently reduced"}, {"measurement": "adults attaching to each survived infected fish at the end of the trial", "setting": "[10]; 73 days, approximately 100 at the start", "result": "approximately 27 individuals"}, {"measurement": "survival rate of the infected fish at the end of the trial", "setting": "[10]; 73 days, control 16.7%", "result": 66.7, "unit": "%"}, {"measurement": "survival rate of the normal fish", "setting": "[10]; cohabitation with infected fish 73 days, control 0%", "result": 75, "unit": "%"}]}]}
